Source: article PMC9388626, “STUB1 is an intracellular checkpoint for interferon gamma sensing” (Scientific Reports, 2022)

What was measured:
[1] = tested on: B16-F10 cells; assay: Gene expression profiling with NanoString PanCancer IO 360; type: cell-based, murine; settings: Stub1-null B16-F10, 0.03 ng ml^−1 IFNγ, 6 h or 24 h
Experimental: After overnight incubation, the culture media were replaced with fresh media (DMEM + 10% FBS) supplemented with 0.03 ng ml^−1 of recombinant mouse IFNγ (R&D Systems, #485-MI-100). Total RNA from untreated cells (24 h) and IFNγ-treated cells (6 or 24 h) were extracted with RNeasy plus mini kit (Qiagen, 74134) according to manufacturer’s protocol. An input of 150 ng RNA from each sample was mixed with the NanoString reporter and capture probes (nCounter Mouse PanCancer IO 360, # XT-CSPS-MIO360-12), and incubated at 65 °C for 20 h. The hybridized samples were processed on the nCounter prep station, and the resulting cartridge was scanned by the nCounter digital analyzer using 555 fields of view. Raw count data were evaluated for quality control and normalized with 19 housekeeping genes using nSolver 4.0 software (Supplementary Table S3). Tlk2 was excluded from the housekeeping gene due to weak expression (RNA counts < 80). […] Weakly expressed genes, where the normalized RNA counts were consistently less than 80 in all samples, were excluded from fold change analysis, resulting in an evaluable set of 493 out of 750 genes (Supplementary Fig. 4a). As an overview, all 750 targeted genes were included in the scatter plot analysis (Supplementary Fig. 4b–d).

[2] = tested on: B16-F10 cells; assay: Western blot, IRF1, STAT1 and phospho-Tyr701-STAT1 at 2 h post IFNγ; type: cell-based, murine; settings: Stub1-null B16-F10, 2 h
Experimental: Cells were dissociated from the wells with 0.25% trypsin (Gibco, 25200056). After rinsing with 0.5 ml PBS, the cell pellets were lysed with chilled cell lysis buffer (Cell Signaling Technology, #9803) supplemented with Halt protease inhibitor cocktail (Thermo Scientific, #78430) and phosphatase inhibitor (Sigma-Aldrich, # 4906837001) for 30 min with intermittent vortexing. The lysate was transferred into PCR-strip tubes and sonicated in a chilled water bath sonicator (QSonica). Lysates were clarified by centrifugation at 15,000 rpm at 4 °C for 15 min. Protein concentration was determined using BCA protein assay kit (Pierce, #23225). The lysates were mixed with LDS sample buffer (Life Technologies, NP0008) and sample reducing agent (Life Technologies, NP0009), followed by heating at 70 °C for 10 min to fully denature the protein. […] Membrane blots were pre-stained with total protein stain (LI-COR, # 926-11016) and imaged with Odyssey CLx. […] The blots were finally probed, for overnight at 4 °C, with the appropriate primary antibodies diluted in Intercept (TBS) blocking buffer supplemented with 0.1% (v/v) Tween-20, followed by the secondary antibodies (IRDye 800CW donkey anti-rabbit or anti-mouse IgG, LI-COR) for 1 h at room temperature. Fluorescent signals were imaged and quantified using Odyssey CLx and Image Studio v5.0. […]

[3] = tested on: PC-3 cells; assay: Growth inhibition, CellTiter-Fluor (live-cell protease activity); type: cell-based, human; design: scale not given here; settings: 10 ng ml-1 each, 6-day
Experimental: (§1) Parental and CRISPR-edited tumour cells were seeded in a cell density of 1800 (DU145), 2000 (PC-3), or 10,000 (MCF7) per well in 96-well CellCarrier plate (PelkinElmer, #6005550) filled with 50 µl culture media + 10% FBS. After 20–24 h incubation, the cells were treated with 10 ng ml^−1 of recombinant human IFNγ (R&D Systems, 285-IF-100), 10 ng ml^−1 of recombinant human TNFα (R&D Systems, 210-TA-020/CF) or a combination of both, by adding an equal volume of the complete culture media containing the cytokines. After incubating for 6 days without media change, the CellTiter-Glo 2.0 (Promega, G9243) or CellTiter-Fluor (Promega, G6082) assay were performed according to manufacturer’ instructions. The luminescence or fluorescence (Ex: 380–400 nm, Em: 505 nm) were detected by Inifinte M1000 PRO (Tecan). For CellTiter-Fluor, triplicate wells without cells were included to determine background fluorescence and the signal average was used for background substraction.

[4] = tested on: DU145 cells; assay: as above; type: cell-based, human; design: scale not given here; settings: 10 ng ml-1 each, 6-day
Experimental: as §1

[5] = tested on: MCF7 cells; assay: as above; type: cell-based, human; design: scale not given here; settings: 10 ng ml-1 each, 6-day
Experimental: as §1

IFNγ
Induction of interferon-stimulated genes [1]: enhanced response to IFNγ treatment
Early induction of IRF1 and phospho-Tyr701-STAT1 [2]: Loss of Stub1 lowers the stimulating threshold of IFNγ
FC in live-cell protease activity relative to parental cells ([3]; PC-3 PTPN2 sgRNA, replicate 1): -0.90
FC in live-cell protease activity relative to parental cells ([3]; PC-3 PTPN2 sgRNA, replicate 2): -0.39
FC in live-cell protease activity relative to parental cells ([3]; PC-3 PTPN2 sgRNA, replicate 3): -0.44
FC in live-cell protease activity relative to parental cells ([3]; PC-3 Parental, replicate 1): 0.02
FC in live-cell protease activity relative to parental cells ([3]; PC-3 Parental, replicate 2): -0.11
FC in live-cell protease activity relative to parental cells ([3]; PC-3 Parental, replicate 3): 0.09
FC in live-cell protease activity relative to parental cells ([3]; PC-3 STUB1 sgRNA, replicate 1): -0.57
FC in live-cell protease activity relative to parental cells ([3]; PC-3 STUB1 sgRNA, replicate 2): -0.73
FC in live-cell protease activity relative to parental cells ([3]; PC-3 STUB1 sgRNA, replicate 3): -0.72
FC in live-cell protease activity relative to parental cells ([3]; PC-3 control sgRNA, replicate 1): 0.0759
FC in live-cell protease activity relative to parental cells ([3]; PC-3 control sgRNA, replicate 2): -0.0157
FC in live-cell protease activity relative to parental cells ([3]; PC-3 control sgRNA, replicate 3): -0.15
FC in live-cell protease activity relative to parental cells ([4]; DU145 PTPN2 sgRNA, replicate 1): -0.09
FC in live-cell protease activity relative to parental cells ([4]; DU145 PTPN2 sgRNA, replicate 2): -0.0242
FC in live-cell protease activity relative to parental cells ([4]; DU145 PTPN2 sgRNA, replicate 3): 0.13
FC in live-cell protease activity relative to parental cells ([4]; DU145 Parental, replicate 1): -0.028
FC in live-cell protease activity relative to parental cells ([4]; DU145 Parental, replicate 2): -0.0441
FC in live-cell protease activity relative to parental cells ([4]; DU145 Parental, replicate 3): 0.07
FC in live-cell protease activity relative to parental cells ([4]; DU145 STUB1 sgRNA, replicate 1): -0.68
FC in live-cell protease activity relative to parental cells ([4]; DU145 STUB1 sgRNA, replicate 2): -0.65
FC in live-cell protease activity relative to parental cells ([4]; DU145 STUB1 sgRNA, replicate 3): -0.52
FC in live-cell protease activity relative to parental cells ([4]; DU145 control sgRNA, replicate 1): 0.0364
FC in live-cell protease activity relative to parental cells ([4]; DU145 control sgRNA, replicate 2): 0.13
FC in live-cell protease activity relative to parental cells ([4]; DU145 control sgRNA, replicate 3): 0.0663
FC in live-cell protease activity relative to parental cells ([5]; MCF7 PTPN2 sgRNA, replicate 1): -0.23
FC in live-cell protease activity relative to parental cells ([5]; MCF7 PTPN2 sgRNA, replicate 2): -0.32
FC in live-cell protease activity relative to parental cells ([5]; MCF7 PTPN2 sgRNA, replicate 3): -0.34
FC in live-cell protease activity relative to parental cells ([5]; MCF7 Parental, replicate 1): 0.0179
FC in live-cell protease activity relative to parental cells ([5]; MCF7 Parental, replicate 2): 0.0179
FC in live-cell protease activity relative to parental cells ([5]; MCF7 Parental, replicate 3): -0.0365
FC in live-cell protease activity relative to parental cells ([5]; MCF7 STUB1 sgRNA, replicate 1): -1.31
FC in live-cell protease activity relative to parental cells ([5]; MCF7 STUB1 sgRNA, replicate 2): -1.18
FC in live-cell protease activity relative to parental cells ([5]; MCF7 STUB1 sgRNA, replicate 3): -1.16
FC in live-cell protease activity relative to parental cells ([5]; MCF7 control sgRNA, replicate 1): -0.0449
FC in live-cell protease activity relative to parental cells ([5]; MCF7 control sgRNA, replicate 2): 0.05
FC in live-cell protease activity relative to parental cells ([5]; MCF7 control sgRNA, replicate 3): 0.01
